One experiment deals with Escherichia coli. As to the kind of experiment: Antibacterial activity against Escherichia coli after 18 hrs by microdilution assay. The experiment is classed as functional.
The next experiment relates to Staphylococcus aureus. In words: Antibacterial activity against Staphylococcus aureus after 18 hrs by microdilution assay. The experiment is classed as functional.
Experiment [1] deals with Glycogen synthase kinase-3 beta (Homo sapiens, UniProt P49841). In words: Inhibition of human recombinant full length GSK3-beta after 1 hrs by luminescence assay.

Each structure is given as a SMILES string. ≈ marks a conversion by molar mass, not a printed value.

From ChEMBL document CHEMBL1833925, “Synthesis and structure-activity relationship of 4-quinolone-3-carboxylic acid based inhibitors of glycogen synthase kinase-3β” (Bioorg Med Chem Lett, 2011) come the findings set out here.

Chain of Glycogen synthase kinase-3 beta (P49841 whole entry): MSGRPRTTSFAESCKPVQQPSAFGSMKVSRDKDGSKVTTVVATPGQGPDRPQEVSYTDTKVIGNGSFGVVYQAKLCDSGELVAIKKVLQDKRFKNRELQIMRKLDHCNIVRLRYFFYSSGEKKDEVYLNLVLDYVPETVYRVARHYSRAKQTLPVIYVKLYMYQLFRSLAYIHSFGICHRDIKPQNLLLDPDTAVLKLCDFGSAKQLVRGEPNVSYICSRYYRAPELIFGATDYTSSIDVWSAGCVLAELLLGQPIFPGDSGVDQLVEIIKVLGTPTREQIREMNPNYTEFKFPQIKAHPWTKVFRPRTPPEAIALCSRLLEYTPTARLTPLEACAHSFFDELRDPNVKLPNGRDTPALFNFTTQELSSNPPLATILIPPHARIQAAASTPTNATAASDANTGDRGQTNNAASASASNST

Take `COc1c(NCCNc2ccccn2)c(F)c(N)c2c(=O)c(C(=O)O)cn(C)c12`: the values for the MIC against Escherichia coli and with Staphylococcus aureus were over 13 µM and 13 µM (≈ 5.22 µg/mL), respectively. Moreover, the 50% inhibitory concentration (IC50) in experiment [1] was 270 nM.

With `Nc1c(F)c(NCCNc2ccccn2)c(F)c2c1c(=O)c(C(=O)O)cn2C1CCCC1`, the MIC with Escherichia coli and against Staphylococcus aureus was over 29 µM each time. Further, the IC50 in experiment [1] worked out at 22 nM.

With `Nc1c(F)c(NC2CCCCC2)c(F)c2c1c(=O)c(C(=O)O)cn2C1CC1`, in experiment [1], the IC50 was found to be 600 nM.

As to `CC1(C)COc2c(NCCNc3ccccn3)c(F)c(N)c3c(=O)c(C(=O)O)cn(c23)C1`, the MIC in the experiment with Escherichia coli and in the experiment with Staphylococcus aureus was over 7 µM each time. Also, the IC50 in experiment [1] turned out to be 160 nM.

As for `Nc1c(F)c(NCCNc2cccc3ccccc23)c(F)c2c1c(=O)c(C(=O)O)cn2C1CC1`, the IC50 in experiment [1] was 47 nM.

Take `Nc1c(F)c(NCCN2CCOCC2)c(F)c2c1c(=O)c(C(=O)O)cn2C1CC1`: the IC50 in experiment [1] worked out at 2100 nM.

For `CC(C)Nc1c(F)c(N)c2c(=O)c(C(=O)O)cn(C3CC3)c2c1F`, the half-inhibitory concentration (IC50) in experiment [1] is 1200 nM.

In the case of `Nc1c(F)c(NCCCc2ccccc2)c(F)c2c1c(=O)c(C(=O)O)cn2C1CC1`, in experiment [1], the IC50 was 45 nM.

`Nc1c(F)c(NCCCCc2ccccc2)c(F)c2c1c(=O)c(C(=O)O)cn2C1CC1`: the IC50 in experiment [1] is 290 nM.

As for `COc1c(NCCNc2cccc3ccccc23)c(F)cc2c(=O)c(C(=O)O)cn(C3CC3)c12`, the IC50 in experiment [1] was found to be 26000 nM.

With `Nc1c(F)c(NCCNc2ccccn2)cc2c1c(=O)c(C(=O)O)cn2C1CC1`, the MIC was found to be 0.8 µM (≈ 0.318 µg/mL) with Escherichia coli and 0.2 µM (≈ 0.0795 µg/mL) against Staphylococcus aureus. In addition, the IC50 in experiment [1] was 13 nM.

As to `COc1c(NCCNc2ccccn2)c(F)c(N)c2c(=O)c(C(=O)O)cn(C3CCCC3)c12`, the minimum inhibitory concentration (MIC) is over 28 µM in the experiment on Escherichia coli and 7 µM (≈ 3.19 µg/mL) in the experiment with Staphylococcus aureus. Further, in experiment [1], the IC50 came to 1500 nM.

Regarding `COc1c(NCCNc2ccccn2)c(F)c(N)c2c(=O)c(C(=O)O)cn(CCC(C)C)c12`, the MIC against Escherichia coli and in the experiment on Staphylococcus aureus was over 28 µM in each case. Moreover, the concentration for half-maximal inhibition (IC50) in experiment [1] was found to be 16000 nM.

As for `COc1c(NCCNc2ccccn2)c(F)c(N)c2c(=O)c(C(=O)O)c[nH]c12`, the MIC against Escherichia coli and in the experiment with Staphylococcus aureus was 25 µM (≈ 9.68 µg/mL) in each case. Moreover, the IC50 in experiment [1] stood at 1000 nM.

With `CC1(C)Cn2cc(C(=O)O)c(=O)c3c(N)c(F)c(NCCNc4ccccn4)c(c32)O1`, the MIC against Escherichia coli and in the experiment with Staphylococcus aureus was over 37 µM each time. In addition, the IC50 in experiment [1] turned out to be 440 nM.

As for `Nc1c(F)c(NCCNc2ccccn2)c2c3c1c(=O)c(C(=O)O)cn3C1(CCC1)CO2`, the minimal inhibitory concentration (MIC) against Escherichia coli and with Staphylococcus aureus was over 36 µM each time. Moreover, in experiment [1], the IC50 amounted to 57 nM.

In the case of `Nc1c(F)c(NCCn2ccnc2)c(F)c2c1c(=O)c(C(=O)O)cn2C1CC1`, in experiment [1], the 50% inhibitory concentration (IC50) worked out at 3400 nM.

As to `CC(C)OCCCNc1c(F)c(N)c2c(=O)c(C(=O)O)cn(C3CC3)c2c1F`, the IC50 in experiment [1] was determined as 110 nM.

With `COc1c(NCCNc2cccc3ccccc23)c(F)c(N)c2c(=O)c(C(=O)O)cn(C3CC3)c12`, the IC50 in experiment [1] is 31 nM.

For `Nc1c(F)c(NCCCn2ccnc2)c(F)c2c1c(=O)c(C(=O)O)cn2C1CC1`, the half-maximal inhibitory concentration (IC50) in experiment [1] turned out to be 45 nM.

Turning to `CC1(C)COc2c(NCCNc3ccccn3)c(F)c(N)c3c(=O)c(C(=O)O)cn1c23`, the minimal inhibitory concentration (MIC) in the experiment with Escherichia coli and against Staphylococcus aureus was 59 µM (≈ 25.2 µg/mL) throughout. Besides, in experiment [1], the IC50 was 49 nM.

As to `COc1c(NCCCc2ccccc2)c(F)c(N)c2c(=O)c(C(=O)O)cn(C3CC3)c12`, the IC50 in experiment [1] was found to be 65 nM.

Take `Nc1ccc(CCNc2c(F)c(N)c3c(=O)c(C(=O)O)cn(C4CC4)c3c2F)cc1`: the concentration for half-maximal inhibition (IC50) in experiment [1] was found to be 900 nM.

With `Nc1c(F)c(NCCc2ccncc2)c(F)c2c1c(=O)c(C(=O)O)cn2C1CC1`, in experiment [1], the IC50 was 100 nM.

Consider `C[C@H]1COc2c(NCCNc3ccccn3)c(F)c(N)c3c(=O)c(C(=O)O)cn1c23`, for which the MIC turned out to be 4 µM (≈ 1.65 µg/mL) in the experiment on Escherichia coli and 2 µM (≈ 0.827 µg/mL) against Staphylococcus aureus. Further, the half-maximal inhibitory concentration (IC50) in experiment [1] was found to be 44 nM.

On to `CC(C)[C@@H]1COc2c(NCCNc3ccccn3)c(F)c(N)c3c(=O)c(C(=O)O)cn1c23`, for which the minimal inhibitory concentration (MIC) against Escherichia coli and in the experiment on Staphylococcus aureus was over 2 µM throughout. Moreover, in experiment [1], the IC50 turned out to be 31 nM.

As to `C[C@@H]1COc2c(NCCNc3ccccn3)c(F)c(N)c3c(=O)c(C(=O)O)cn1c23`, the MIC against Escherichia coli is over 243 µM; against Staphylococcus aureus it was 243 µM (≈ 100 µg/mL). Besides, the IC50 in experiment [1] came out at 560 nM.

On to `Nc1c(F)c(NCCNc2ccccn2)c(F)c2c1c(=O)c(C(=O)O)cn2C1CC1`, for which the IC50 in experiment [1] came to 190 nM.

As for `Nc1c(F)c(NCCc2c[nH]c3ccccc23)c(F)c2c1c(=O)c(C(=O)O)cn2C1CC1`, the 50% inhibitory concentration (IC50) in experiment [1] stood at 660 nM.

As for `CC(C)[C@H]1COc2c(NCCNc3ccccn3)c(F)c(N)c3c(=O)c(C(=O)O)cn1c23`, the figures for the MIC in the experiment on Escherichia coli and with Staphylococcus aureus were over 29 µM and 14 µM (≈ 6.18 µg/mL), respectively. For the same compound, in experiment [1], the concentration for half-maximal inhibition (IC50) was found to be 75 nM.

Turning to `Nc1c(F)c(NCCNc2ccccn2)c2c3c1c(=O)c(C(=O)O)cn3C1(CCCC1)CO2`, the figures for the minimum inhibitory concentration (MIC) in the experiment on Escherichia coli and in the experiment with Staphylococcus aureus were over 71 µM and 71 µM (≈ 32.2 µg/mL), respectively. In experiment [1], the IC50 came out at 12 nM.

Take `COc1c(NCCNc2ccccn2)c(F)c(N)c2c(=O)c(C(=O)O)cn(C3CC3)c12`: the minimal inhibitory concentration (MIC) turned out to be 9 µM (≈ 3.85 µg/mL) against Escherichia coli and 1 µM (≈ 0.427 µg/mL) in the experiment with Staphylococcus aureus. Also, in experiment [1], the half-inhibitory concentration (IC50) stood at 160 nM.

On to `Nc1c(F)c(NCCc2ccccc2)c(F)c2c1c(=O)c(C(=O)O)cn2C1CC1`, for which the half-inhibitory concentration (IC50) in experiment [1] was found to be 440 nM.

On to `COc1c(NCCCc2ccccc2)c(F)cc2c(=O)c(C(=O)O)cn(C3CC3)c12`, for which, in experiment [1], the 50% inhibitory concentration (IC50) was found to be 17000 nM.
